Experimental data published in PubChem BioAssay (NCI).
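How tested: cells in 96-well plates exposed to compound for 48 hours at five concentrations. Abbreviation: GI50, concentration required for 50% inhibition of growth. At the TGI there is no net growth.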

Key:
Assay in all cases: DTP human tumour cell line panel, 48 h
SF-268 CNS = test system: SF-268 CNS
SF-295 CNS = test system: SF-295 CNS
A498 renal = test system: A498 renal
COLO 205 colon = test system: COLO 205 colon
SK-OV-3 ovarian = test system: SK-OV-3 ovarian
RXF 393 renal = test system: RXF 393 renal
SNB-19 CNS = test system: SNB-19 CNS
SW-620 colon = test system: SW-620 colon
MDA-MB-435 = test system: MDA-MB-435
EKVX NSCLC = test system: EKVX NSCLC

SMILES: Cc1ccc(-c2nc3nc(-c4ccc(F)cc4)nc(N4CCNCC4)c3o2)cc1
- GI50 (SF-268 CNS): 1.93 µM
- TGI (SF-268 CNS): 4.35 µM
- GI50 (SF-295 CNS): 18.3 µM
- TGI (SF-295 CNS): 33.9 µM
- GI50 (A498 renal): 16.1 µM
- TGI (A498 renal): 30.5 µM
- GI50 (COLO 205 colon): 2.1 µM
- TGI (COLO 205 colon): 4.64 µM
- GI50 (SK-OV-3 ovarian): 18.7 µM
- TGI (SK-OV-3 ovarian): 34.4 µM
- GI50 (RXF 393 renal): 10.7 µM
- TGI (RXF 393 renal): 23.2 µM
- GI50 (SNB-19 CNS): 5.97 µM
- TGI (SNB-19 CNS): 19.8 µM
- GI50 (SW-620 colon): 1.76 µM
- TGI (SW-620 colon): 3.61 µM
- GI50 (MDA-MB-435): 1.78 µM
- TGI (MDA-MB-435): 3.24 µM
- GI50 (EKVX NSCLC): 4.53 µM
- TGI (EKVX NSCLC): 17.3 µM

SMILES: C[C@H](c1ccc(F)cc1CCCC(=O)O)N(c1cc(F)ccc1F)S(=O)(=O)c1ccc(Cl)cc1
- GI50 (SF-268 CNS): 34.5 µM
- TGI (SF-268 CNS): > 100 µM
- GI50 (SF-295 CNS): 23.1 µM
- TGI (SF-295 CNS): > 75.9 µM
- GI50 (A498 renal): 13.1 µM
- TGI (A498 renal): 57.6 µM
- GI50 (COLO 205 colon): 33.7 µM
- TGI (COLO 205 colon): > 92.9 µM
- GI50 (SK-OV-3 ovarian): 42.3 µM
- TGI (SK-OV-3 ovarian): > 100 µM
- GI50 (RXF 393 renal): 21 µM
- TGI (RXF 393 renal): > 79.7 µM
- GI50 (SNB-19 CNS): 27.9 µM
- TGI (SNB-19 CNS): > 100 µM
- GI50 (SW-620 colon): 34.6 µM
- TGI (SW-620 colon): > 100 µM
- GI50 (MDA-MB-435): 20.6 µM
- TGI (MDA-MB-435): 51.3 µM
- GI50 (EKVX NSCLC): 30 µM
- TGI (EKVX NSCLC): > 100 µM

SMILES: CC1(C)CC(=O)C=C(/C=C/Sc2c(Cl)c(Cl)nc(Cl)c2Cl)C1
- GI50 (SF-268 CNS): 13 µM
- TGI (SF-268 CNS): 32.4 µM
- GI50 (SF-295 CNS): 17.7 µM
- TGI (SF-295 CNS): 35.6 µM
- GI50 (A498 renal): 21.7 µM
- TGI (A498 renal): 36.6 µM
- GI50 (COLO 205 colon): 17.2 µM
- TGI (COLO 205 colon): 31.3 µM
- GI50 (SK-OV-3 ovarian): 19.9 µM
- TGI (SK-OV-3 ovarian): 34.8 µM
- GI50 (RXF 393 renal): 7.61 µM
- TGI (RXF 393 renal): 22 µM
- GI50 (SNB-19 CNS): 15.9 µM
- TGI (SNB-19 CNS): 29.5 µM
- GI50 (SW-620 colon): 11.8 µM
- TGI (SW-620 colon): 32.7 µM
- GI50 (MDA-MB-435): 2.88 µM
- TGI (MDA-MB-435): 8.2 µM

SMILES: Cc1ccc([Se](=C(C(=O)c2ccccc2)C(=O)c2ccccc2)c2ccc(C)cc2)cc1
- TGI (SF-268 CNS): > 100 µM
- TGI (SF-295 CNS): 66.5 µM
- TGI (A498 renal): 49 µM
- TGI (COLO 205 colon): 43.4 µM
- TGI (SK-OV-3 ovarian): > 100 µM
- TGI (RXF 393 renal): > 100 µM
- TGI (SNB-19 CNS): > 100 µM
- TGI (SW-620 colon): > 100 µM
- TGI (MDA-MB-435): 55 µM

SMILES: O=C([O][Hg][c]1ccccc1)c1ccccc1
- GI50 (SF-268 CNS): 1.89 µM
- TGI (SF-268 CNS): 4.78 µM
- GI50 (SF-295 CNS): 12.2 µM
- TGI (SF-295 CNS): 25.5 µM
- GI50 (A498 renal): 1.85 µM
- TGI (A498 renal): 7.33 µM
- GI50 (COLO 205 colon): 1.89 µM
- TGI (COLO 205 colon): 3.35 µM
- GI50 (SK-OV-3 ovarian): 4.03 µM
- TGI (SK-OV-3 ovarian): 11.9 µM
- GI50 (RXF 393 renal): 1.24 µM
- TGI (RXF 393 renal): 2.56 µM
- GI50 (SNB-19 CNS): 3.32 µM
- TGI (SNB-19 CNS): 8.7 µM
- GI50 (SW-620 colon): 0.943 µM
- TGI (SW-620 colon): 2.63 µM
- GI50 (MDA-MB-435): 1.55 µM
- TGI (MDA-MB-435): 3.1 µM

SMILES: Oc1c(C(Nc2ccccn2)c2cccc(Oc3ccccc3)c2)ccc2cccnc12 (stereo not given)
- GI50 (SF-268 CNS): 0.518 µM
- TGI (SF-268 CNS): 14.3 µM
- GI50 (SF-295 CNS): 0.392 µM
- TGI (SF-295 CNS): 13.3 µM
- GI50 (A498 renal): 0.262 µM
- TGI (A498 renal): 6.22 µM
- GI50 (COLO 205 colon): 0.492 µM
- TGI (COLO 205 colon): 14.7 µM
- GI50 (SK-OV-3 ovarian): 0.836 µM
- TGI (SK-OV-3 ovarian): 15.6 µM
- GI50 (RXF 393 renal): 1.32 µM
- TGI (RXF 393 renal): 22.1 µM
- GI50 (SNB-19 CNS): 0.366 µM
- TGI (SNB-19 CNS): 14.7 µM
- GI50 (SW-620 colon): 0.422 µM
- TGI (SW-620 colon): 20.7 µM
- GI50 (MDA-MB-435): 0.496 µM
- TGI (MDA-MB-435): 16.4 µM

SMILES: COc1ccc(-c2cc(/C=C3\C(=O)Nc4cc(Cl)ccc43)[nH]n2)cc1
- GI50 (SF-268 CNS): 5.84 µM
- TGI (SF-268 CNS): > 100 µM
- GI50 (SF-295 CNS): 2.68 µM
- TGI (SF-295 CNS): 12.2 µM
- GI50 (A498 renal): 2.38 µM
- TGI (A498 renal): 7.04 µM
- GI50 (COLO 205 colon): 2.06 µM
- TGI (COLO 205 colon): 5.51 µM
- GI50 (SK-OV-3 ovarian): 4.23 µM
- TGI (SK-OV-3 ovarian): > 100 µM
- GI50 (RXF 393 renal): 2.03 µM
- TGI (RXF 393 renal): 7.36 µM
- GI50 (SNB-19 CNS): 4.65 µM
- TGI (SNB-19 CNS): > 100 µM
- GI50 (SW-620 colon): 2.57 µM
- TGI (SW-620 colon): > 100 µM
- GI50 (MDA-MB-435): 0.416 µM
- TGI (MDA-MB-435): 2.11 µM

SMILES: COC1=CC(c2ccc[nH]2)=N/C1=C\c1[nH]c(C)c(C(=O)CCC(=O)Oc2ccc3c(c2)CCC2C3CC[C@]3(C)[C@@H](O)CC[C@@H]23)c1C (stereo not given in full)
- GI50 (SF-268 CNS): 2.91 µM
- TGI (SF-268 CNS): > 100 µM
- GI50 (SF-295 CNS): 4 µM
- TGI (SF-295 CNS): 20.4 µM
- GI50 (A498 renal): 1.87 µM
- TGI (A498 renal): 8.82 µM
- GI50 (COLO 205 colon): 5.15 µM
- TGI (COLO 205 colon): > 100 µM
- GI50 (SK-OV-3 ovarian): 5.56 µM
- TGI (SK-OV-3 ovarian): > 100 µM
- GI50 (RXF 393 renal): 4.71 µM
- TGI (RXF 393 renal): 69.8 µM
- GI50 (SNB-19 CNS): 4.13 µM
- TGI (SNB-19 CNS): 72.6 µM
- GI50 (SW-620 colon): 0.816 µM
- TGI (SW-620 colon): 5.14 µM
- GI50 (MDA-MB-435): 3.25 µM
- TGI (MDA-MB-435): > 100 µM

SMILES: CNC(=O)c1nn(C)c2c1C(C)(C)Cc1cnc(Nc3cccc(N4CCN(C)CC4)c3)nc1-2
- GI50 (SF-268 CNS): 0.931 µM
- TGI (SF-268 CNS): 9.36 µM
- GI50 (SF-295 CNS): 0.332 µM
- TGI (SF-295 CNS): 6.84 µM
- GI50 (A498 renal): 0.0254 µM
- TGI (A498 renal): 0.389 µM
- GI50 (COLO 205 colon): 0.239 µM
- TGI (COLO 205 colon): 1.59 µM
- GI50 (SK-OV-3 ovarian): 0.21 µM
- TGI (SK-OV-3 ovarian): 7.44 µM
- GI50 (RXF 393 renal): 0.147 µM
- TGI (RXF 393 renal): 1.38 µM
- GI50 (SNB-19 CNS): 0.322 µM
- TGI (SNB-19 CNS): 28.7 µM
- GI50 (SW-620 colon): 0.287 µM
- TGI (SW-620 colon): 22.4 µM
- GI50 (MDA-MB-435): 0.335 µM
- TGI (MDA-MB-435): 11.8 µM

SMILES: CS(=O)(=O)N1CCC(n2c(=O)c(Oc3ccc(F)cc3F)cc3cnc(NC4CCOCC4)nc32)CC1
- GI50 (SF-268 CNS): > 25 µM
- TGI (SF-268 CNS): > 25 µM
- GI50 (SF-295 CNS): > 25 µM
- TGI (SF-295 CNS): > 25 µM
- GI50 (A498 renal): 3.18 µM
- TGI (A498 renal): > 25 µM
- GI50 (COLO 205 colon): > 25 µM
- TGI (COLO 205 colon): > 25 µM
- GI50 (SK-OV-3 ovarian): > 17.5 µM
- TGI (SK-OV-3 ovarian): > 25 µM
- GI50 (RXF 393 renal): 6.88 µM
- TGI (RXF 393 renal): > 25 µM
- GI50 (SNB-19 CNS): > 25 µM
- TGI (SNB-19 CNS): > 25 µM
- GI50 (SW-620 colon): > 25 µM
- TGI (SW-620 colon): > 25 µM
- GI50 (MDA-MB-435): > 25 µM
- TGI (MDA-MB-435): > 25 µM
